Assay results as given in patent publication US6756359B2, “C12 modified erythromycin macrolides and ketolides having antibacterial activity” (Chiron Corporation, priority 2001, dated 2004).
Converted amounts (≈) assume the structure as drawn.

Tests used:
Assay in all cases: Antibacterial activity in vitro, MIC by broth microdilution
[1] = test system: S. epidermidis Step_14990; format: cell-based; conditions: Table 5, Strain ID B: S. epidermidis Step_14990; unit assumed
Description: (§1) Representative compounds of the present invention were assayed in vitro for antibacterial activity against the bacterial isolates listed in Table 1 as follows:
(§2) The bacterial isolates listed in Table 1 were cultivated from −70° C. frozen stocks by two consecutive overnight passages (P1, P2) at 35° C. on 5% blood agar (Remel, Lenexa, Kans.). Chocolate agar (Remel) is used for Haemophilus influenzae. H. influenzae and Streptococcus pneumoniae are incubated in 5-10% CO2.
(§3) To determine the amount of solvent to be used to give the desired final concentration, the formula “weight obtained in mg/final concentration in mg/mL” will be used. It will give the amount of solvent in mL needed to be added to give the desired concentration. For example, if 2.5 mg/mL is the desired concentration and the weight of compound is 13.7 mg, then the amount of solvent to be added is 3.94 mL (13.7 mg/2.5 mg/mL=3.94 mLs). Methanol is used as the solvent to dissolve the test compounds. Further dilution of stock is done in sterile, deioinzed water. Drug stocks are kept frozen at −70° C., protected from light.
(§4) MICs are determined by the broth microdilution method in accordance with the NCCLS guidelines. In brief, organism suspensions are adjusted to a 0.5 McFarland standard to yield a final inoculum between 3×10^5 and 7×10^5 CFU/mL. Drug dilutions and inocula are made in sterile, cation adjusted Mueller-Hinton Broth (CAMHB) (Remel) for all but S. pneumoniae [CAMHB with 2-5% lysed horse blood (Remel)] and H. influenzae [Haemophilus Test Medium (Remel)]. An inoculum volume of 100 μl is added to wells containing 100 μl of broth with 2-fold serial dilutions of drug. All inoculated microdilution trays are incubated in ambient air at 35° C. for 18-24 hours, except for S. pneumoniae, and H. influenzae (both at 5-10% CO2).
(§5) Following appropriate incubation, the MIC is determined and the MIC is defined as the lowest concentration of the drug that prevented visible growth.

[2] = test system: S. aureus Stau_29213; format: cell-based; conditions: Table 5, Strain ID A: S. aureus Stau_29213; unit assumed
Description: as §1, §2, §3, §4, §5

[3] = test system: S. epidermidis Step_f50654 Pen S; format: cell-based; conditions: Table 5, Strain ID C: S. epidermidis Step_f50654; unit assumed
Description: as §1, §2, §3, §4, §5

[4] = test system: S. pyogenes Stpy_8668; format: cell-based; conditions: Table 5, Strain ID E: S. pyogenes Stpy_8668
Description: as §1, §2, §3, §4, §5

[5] = test system: E. faecalis Enfa_29212; format: cell-based; conditions: Table 5, Strain ID D: E. faecalis Enfa_29212; unit assumed
Description: as §1, §2, §3, §4, §5

[6] = test system: H. influenzae Hain_49247; format: cell-based, Haemophilus influenzae; conditions: Table 5, Strain ID M: H. influenzae Hain_49247; unit assumed
Description: as §1, §2, §3, §4, §5

[7] = test system: S. pneumoniae Stpn_297-749 Pen R; format: cell-based, Streptococcus pneumoniae; conditions: Table 5, Strain ID G: S. pneumoniae Stpn_297-749
Description: as §1, §2, §3, §4, §5

[8] = test system: S. pneumoniae Stpn_Mef S 3427; format: cell-based, Streptococcus pneumoniae; conditions: Table 5, Strain ID L: S. pneumoniae Stpn_Mef S 3427; unit assumed
Description: as §1, §2, §3, §4, §5

[9] = test system: S. pneumoniae Stpn_Erm 6849; format: cell-based, Streptococcus pneumoniae; conditions: Table 5, Strain ID I: S. pneumoniae Stpn_Erm 6849; unit assumed
Description: as §1, §2, §3, §4, §5

[10] = test system: S. pneumoniae Stpn_49619; format: cell-based, Streptococcus pneumoniae; conditions: Table 5, Strain ID F: S. pneumoniae Stpn_49619
Description: as §1, §2, §3, §4, §5

[11] = test system: S. pneumoniae Stpn_Mef 5654; format: cell-based, Streptococcus pneumoniae; conditions: Table 5, Strain ID K: S. pneumoniae Stpn_Mef 5654; unit assumed
Description: as §1, §2, §3, §4, §5

[12] = test system: S. pneumoniae Stpn_280-962 Pen S; format: cell-based, Streptococcus pneumoniae; conditions: Table 5, Strain ID H: S. pneumoniae Stpn_280-962
Description: as §1, §2, §3, §4, §5

[13] = test system: S. pneumoniae Stpn_Erm S 4297; format: cell-based, Streptococcus pneumoniae; conditions: Table 5, Strain ID J: S. pneumoniae Stpn_Erm S 4297; unit assumed
Description: as §1, §2, §3, §4, §5

CC[C@H]1OC(=O)[C@H](C)C(=O)[C@H](C)[C@@H](OC2O[C@H](C)C[C@H](N(C)C)[C@H]2O)[C@@](C)(OC)C[C@@H](C)C(=O)[C@H](C)[C@H]2N(CCCCn3cnc4ncccc43)C(=O)O[C@]12CC (stereo partly drawn) [Example 22, (3aS,4R,7R,9R,10R,11S,13R,15R,15aR)-3a,4-diethyl-1-[4-(1H-imidazo[4,5-b]pyridin-1-yl)butyl]-11-methoxy-7,9,11,13,15-pentamethyl-2,6,8,14-tetraoxotetradecahydro-2H-oxacyclotetradecino[4,3-d][1,3]oxazol-10-yl 3,4,6-trideoxy-3-(dimethylamino)-D-xylo-hexopyranoside]
MIC [1]: 0.4 µg/mL (≈ 0.5 µM) | MIC [2]: 0.4 µg/mL (≈ 0.5 µM) | MIC [3]: 0.4 µg/mL (≈ 0.5 µM) | MIC [4]: ≦0.05 | MIC [5]: 0.2 µg/mL (≈ 0.25 µM) | MIC [6]: 3.13 µg/mL (≈ 3.91 µM) | MIC [7]: ≦0.05 | MIC [8]: 0.2 µg/mL (≈ 0.25 µM) | MIC [9]: 0.2 µg/mL (≈ 0.25 µM) | MIC [10]: ≦0.05 | MIC [11]: 0.78 µg/mL (≈ 0.975 µM) | MIC [12]: ≦0.05 | MIC [13]: 0.1 µg/mL (≈ 0.125 µM)

CC[C@H]1OC(=O)[C@H](C)C(=O)[C@H](C)[C@@H](OC2O[C@H](C)C[C@H](N(C)C)[C@H]2O)[C@@](C)(OC)C[C@@H](C)C(=O)[C@H](C)[C@H]2N(CCN(C)Cc3cccnc3)C(=O)O[C@]12CC (stereo partly drawn) [Example 23, (3aS,4R,7R,9R,10R,11S,13R,15R,15aR)-3a,4-diethyl-11-methoxy-7,9,11,13,15-pentamethyl-1-{2-[methyl(pyridin-3-ylmethyl)amino]ethyl}-2,6,8,14-tetraoxotetradecahydro-2H-oxacyclotetradecino[4,3-d][1,3]oxazol-10-yl 3,4,6-trideoxy-3-(dimethylamino)-D-xylo-hexopyranoside]
MIC [1]: 0.78 µg/mL (≈ 1.01 µM) | MIC [2]: 1.56 µg/mL (≈ 2.01 µM) | MIC [3]: 0.78 µg/mL (≈ 1.01 µM) | MIC [4]: ≦0.05 | MIC [5]: 0.2 µg/mL (≈ 0.258 µM) | MIC [6]: 6.25 µg/mL (≈ 8.06 µM) | MIC [7]: ≦0.05 | MIC [8]: 0.1 µg/mL (≈ 0.129 µM) | MIC [9]: 0.78 µg/mL (≈ 1.01 µM) | MIC [10]: ≦0.05 | MIC [11]: 0.4 µg/mL (≈ 0.516 µM) | MIC [12]: ≦0.05 | MIC [13]: 0.2 µg/mL (≈ 0.258 µM)

CC[C@H]1OC(=O)[C@@](C)(F)C(=O)[C@H](C)[C@@H](OC2O[C@H](C)C[C@H](N(C)C)[C@H]2O)[C@@](C)(OC)C[C@@H](C)C(=O)[C@H](C)[C@H]2N(CCCCn3cnc4ncccc43)C(=O)O[C@]12CC (stereo partly drawn) [Example 27, (3aS,4R,7S,9R,10R,11S,13R,15R,15aR)-3a,4-diethyl-7-fluoro-1-[4-(1H-imidazo[4,5-b]pyridin-1-yl)butyl]-11-methoxy-7,9,11,13,15-pentamethyl-2,6,8,14-tetra-oxotetradecahydro-2H-oxacyclotetradecino[4,3-d][1,3]oxazol-10-yl 3,4,6-trideoxy-3-(dimethylamino)-D-xylo-hexopyranoside]
MIC [1]: 0.1 µg/mL (≈ 0.122 µM) | MIC [2]: 0.1 µg/mL (≈ 0.122 µM) | MIC [3]: 0.1 µg/mL (≈ 0.122 µM) | MIC [4]: ≦0.025 | MIC [5]: 0.05 µg/mL (≈ 0.0611 µM) | MIC [6]: 1.56 µg/mL (≈ 1.91 µM) | MIC ([7]; unit assumed): 0.025 µg/mL (≈ 0.0306 µM) | MIC [8]: 0.1 µg/mL (≈ 0.122 µM) | MIC [9]: 3.13 µg/mL (≈ 3.83 µM) | MIC [10]: ≦0.025 | MIC [11]: 0.4 µg/mL (≈ 0.489 µM) | MIC [12]: ≦0.025 | MIC [13]: 0.1 µg/mL (≈ 0.122 µM)

CC[C@H]1OC(=O)[C@H](C)C(=O)[C@H](C)[C@@H](OC2O[C@H](C)C[C@H](N(C)C)[C@H]2O)[C@@](C)(OC)C[C@@H](C)C(=O)[C@H](C)[C@H]2N(CCCCn3cnc(-c4cccnc4)c3C)C(=O)O[C@]12CC (stereo partly drawn) [Example 21, (3aS,4R,7R,9R,10R,11S,13R,15R,15aR)-3a,4-diethyl-11-methoxy-7,9,11,13,15-pentamethyl-1-[4-(5-methyl-4-pyridin-3-yl-1H-imidazol-1-yl)butyl]-2,6,8,14-tetraoxotetradecahydro-2H-oxacyclotetradecino[4,3-d][1,3]oxazol-10-yl 3,4,6-trideoxy-3-(dimethylamino)-D-xylo-hexopyranoside]
MIC [1]: 0.4 µg/mL (≈ 0.476 µM) | MIC [2]: 0.4 µg/mL (≈ 0.476 µM) | MIC [3]: 0.4 µg/mL (≈ 0.476 µM) | MIC [4]: ≦0.05 | MIC [5]: 0.1 µg/mL (≈ 0.119 µM) | MIC [6]: 12.5 µg/mL (≈ 14.9 µM) | MIC [7]: ≦0.05 | MIC [8]: 0.1 µg/mL (≈ 0.119 µM) | MIC [9]: 0.2 µg/mL (≈ 0.238 µM) | MIC [10]: ≦0.05 | MIC [11]: 0.78 µg/mL (≈ 0.928 µM) | MIC [12]: ≦0.05 | MIC [13]: 0.1 µg/mL (≈ 0.119 µM)

CC[C@H]1OC(=O)[C@H](C)C(=O)[C@H](C)[C@@H](OC2O[C@H](C)C[C@H](N(C)C)[C@H]2O)[C@@](C)(OC)C[C@@H](C)C(=O)[C@H](C)[C@H]2N(CCCC(C)(C)n3cnc(-c4cccnc4)c3)C(=O)O[C@]12CC (stereo partly drawn) [Example 31, (3aS,4R,7R,9R,10R,11S,13R,15R,15aR)-3a,4-diethyl-11-methoxy-7,9,11,13,15-pentamethyl-1-[4-methyl-4-(4-pyridin-3-yl-1H-imidazol-1-yl)pentyl]-2,6,8,14-tetraoxotetradecahydro-2H-oxacyclotetradecino[4,3-d][1,3]oxazol-10-yl 3,4,6-trideoxy-3-(dimethylamino)-D-xylo-hexopyranoside]
MIC [1]: 0.4 µg/mL (≈ 0.468 µM) | MIC [2]: 0.2 µg/mL (≈ 0.234 µM) | MIC [3]: 0.4 µg/mL (≈ 0.468 µM) | MIC [4]: ≦0.05 | MIC [5]: 0.2 µg/mL (≈ 0.234 µM) | MIC [6]: 6.25 µg/mL (≈ 7.32 µM) | MIC [7]: ≦0.05 | MIC [8]: 0.2 µg/mL (≈ 0.234 µM) | MIC [9]: 0.4 µg/mL (≈ 0.468 µM) | MIC [10]: ≦0.05 | MIC [11]: 0.78 µg/mL (≈ 0.913 µM) | MIC [12]: ≦0.05 | MIC [13]: 0.2 µg/mL (≈ 0.234 µM)

C/C=C\[C@]12OC(=O)N(CCCCn3cnc(-c4cccnc4)c3)[C@@H]1[C@@H](C)C(=O)[C@H](C)C[C@](C)(OC)[C@H](O[C@@H]1O[C@H](C)C[C@H](N(C)C)[C@H]1O)[C@@H](C)C(=O)[C@](C)(F)C(=O)O[C@@H]2CC [Example 66, (3aS,4R,7S,9R,10R,11S,13R,15R,15aR)-4-ethyl-7-fluoro-11-methoxy-7,9,11,13,15-pentamethyl-2,6,8,14-tetraoxo-3a-[(1Z)-prop-1-enyl]-1-[4-(4-pyridin-3-yl-1H-imidazol-1-yl)butyl]tetradecahydro-2H-oxacyclotetradecino[4,3-d][1,3]oxazol-10-yl 3,4,6-trideoxy-3-(dimethylamino)-D-xylo-hexopyranoside]
MIC [1]: 0.2 µg/mL (≈ 0.234 µM) | MIC [2]: 0.2 µg/mL (≈ 0.234 µM) | MIC [3]: 0.2 µg/mL (≈ 0.234 µM) | MIC [4]: ≦0.05 | MIC [5]: 0.01 µg/mL (≈ 0.0117 µM) | MIC [6]: 6.25 µg/mL (≈ 7.3 µM) | MIC [7]: ≦0.05 | MIC [8]: 0.1 µg/mL (≈ 0.117 µM) | MIC [9]: 0.2 µg/mL (≈ 0.234 µM) | MIC [10]: ≦0.05 | MIC [11]: 0.4 µg/mL (≈ 0.467 µM) | MIC [12]: ≦0.05 | MIC [13]: 0.1 µg/mL (≈ 0.117 µM)
